Here are results for 5 compounds from patent US6955921B2, “Trypsin substrate and diagnostic device, and method of using same” (Bayer Corporation, priority 2001, dated 2005).

Values joined by “and” are separate entries in the source; they are usually repeats but may differ in a detail not shown here. Identical values can stand only once.

In assay [1] the target is T1, Bovine Pancreatic Trypsin (Bos taurus, UniProt P00760).
T1 construct: purchased Calbiochem 6502; host or cells: bovine pancreas
T1 sequence (P00760 24-246): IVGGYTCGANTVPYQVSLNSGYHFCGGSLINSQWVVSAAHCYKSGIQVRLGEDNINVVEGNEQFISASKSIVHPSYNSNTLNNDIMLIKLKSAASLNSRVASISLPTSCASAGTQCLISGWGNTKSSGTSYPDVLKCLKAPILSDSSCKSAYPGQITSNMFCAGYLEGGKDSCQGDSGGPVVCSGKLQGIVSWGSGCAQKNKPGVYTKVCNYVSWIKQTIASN
In words: Dry-phase analytical element (reagent strip) for UTI measurement, decode from reflectance. Format: biochemical. To be noted: reflectance at 15 and 60 seconds; for decode, Negative Sample: Negative Sample = Water, substrate 1.25 mM in second dip; for decode, Positive Sample: Positive Sample = Water with 200 IU/mL urine trypsin inhibitor (ulinastatin). As to the method: Reagent strips were made according to the following procedure: Filter paper (240 C grade from Ahlstrom Inc.) was saturated with the first dip solution and dried for 2 minutes at 80° C. and 4 minutes at 60° C. The resultant paper was then saturated with the second dip solution and dried for 6 minutes at 50° C. to form the completed reagent paper. Adhesive ([…] from 3M Inc.) was applied to the reagent paper and it was affixed to a polystyrene handle in the form of pads, which were 0.20 inch×0.20 inches square. A. Composition of the First Dip: • a. Water • b. Bicine Buffer (600 mM) • c. Ethylene glycol bis (β-aminoethyl ether) N,N,N',N'-tetra-acetic acid (EGTA) (5.1 mM) • d. Plasdone (PVP K30 from Sigma-Aldrich) (1.75% by weight) • e. MgSO4 (660 mM) • f. Bovine Pancreatic Trypsin (Calbiochem Cat. No. 6502) (272 units/mL) • g. Adjust to pH 8.00±0.02 with 1N NaOH. B. Composition of the Second Dip: • a. Acetone • b. […] KOK-10071 polymer (from Bayer Corporation) (0.1% by weight) Data were obtained by dipping the strips into the samples set out in Table 1 and placing them in a […] 50 spectrometer from Bayer Diagnostics to collect data at 15 and 60 seconds after dipping. Decode values were calculated using the equation: decode={[(B15+G15)-(B60+G60)]/(B15+G15)}*1000 Where: • B15 is the reflectance of the blue wavelength at 15 seconds, • B60 is the reflectance of the blue wavelength at 60 seconds, • G15 is the reflectance of the green wavelength at 15 seconds, and • […] is the reflectance of the green wavelength at 60 seconds.

In assay [2] the target is T1, Bovine Pancreatic Trypsin. In words: Dry-phase analytical element for trypsin detection, colour with MMBD diazonium salt. The format is biochemical. Particulars: within one minute. As to the method: (§1) Reagent strips were made according to the following procedure: Filter paper (240 C grade from Ahlstrom Inc.) was saturated with the first dip solution and dried at ambient temperature for 2 hours, then at 110° C. for 5 minutes. The resultant paper was saturated with the second dip solution and dried for about 1 minute at 60° C. to form the completed, white reagent paper. The paper was then cut into pads, which were 0.25 inch×0.25 inches square.
(§2) A. Composition of the First Dip:
• a. Water (25.0 mL) • b. Ethylene glycol bis (β-aminoethyl ether) N,N,N′,N′-tetra-acetic acid (EGTA) (0.06 g) • c. Plasdone (PVP K30 from Sigma-Aldrich) (0.438 g) • d. MgSO4 (1.08 g) B. Composition of the Second Dip: • a. Acetone (7.75 mL) • b. Example 3 trypsin substrate (4-(Nα-tosyl-NG-nitro-L-argininyloxy)-2-phenyl-5H-thiazole, 3.1 mg) • c. 2-Methoxy-4-morpholinobenzene diazonium chloride, zinc chloride double salt (MMBD) (diazonium coupling agent) (2.5 mg)
Identical pads were separately wetted with 25 μL portions of two different test solutions. One test solution was 50 mM pH=8 phosphate buffer (control solution) and the second was 50 mM pH=8 phosphate buffer containing 10,000 U/mL of bovine pancreatic trypsin (test solution).

The target in assay [3] is T1, Bovine Pancreatic Trypsin. The assay is described as follows: Dry-phase analytical element for trypsin detection, fluorescence under 365 nm UV. The format is biochemical. To be noted: within one minute. As to the method: as §1, §2
• a. Water (24.55 mL) • b. Ethylene glycol bis (β-aminoethyl ether) N,N,N′,N′-tetra-acetic acid (EGTA) (0.06 g) • c. Plasdone (PVP K30 from Sigma-Aldrich) (0.876 g) • d. MgSO4 (1.08 g) B. Composition of the Second Dip: • a. Acetone (9.3 mL) • b. Acetic acid (0.108 mL) • c. Example 5 trypsin substrate (7-(Nα-tosyl-NG-nitro-L-argininyloxy)-4-methylcoumarin, 5.0 mg)
Identical pads were separately wetted with 25 μL portions of two different test solutions and viewed under long wavelength (365 nm) ultraviolet light illumination. One test solution was 50 mM pH=7 phosphate buffer (control solution) and the second was 50 mM pH=7 phosphate buffer containing 10,000 U/mL of bovine pancreatic trypsin (test solution).

A further assay has as its target T2, trypsin (Bos taurus, UniProt P00760).
T2 sequence (P00760 24-246): T1 sequence (P00760 24-246)
In words: Modified liquid assay with reagent pads, rate of fluorescent emission increase. To be noted: pH=7 buffer, excitation 335 nm. The format is biochemical, bovine. As for the experimental part: Trypsin concentrations may be instrumentally determined with the reagent pads in a modified liquid assay. Three reagent pads are extracted with 2.0 mL of 50 mM pH=7 buffer containing 0-20 u/mL of trypsin. Fluorescent emission at 385 nm is measured with a Perkin-Elmer Model LS-5 fluorescence spectrophotometer using excitation at 335 nm, and is reported in luminescence units (LU). The rate of increase of emission at 385 nm was determined graphically from the plot of LU vs. time output by the instrument.

For the compound `Cc1ccc(S(=O)(=O)N[C@@H](CCCNC(N)=N[N+](=O)[O-])C(=O)Oc2c[nH]c(-c3ccccc3)c2)cc1` [Example 1, 3-(Nα-tosyl-NG-nitro-L-argininyloxy)-5-phenylpyrrole], in assay [1], the “decode, Negative Sample” value was 474 and the “decode, Positive Sample” value worked out at 212.
Turning to `Cc1ccc(S(=O)(=O)NC(CCCN=C(N)N[N+](=O)[O-])C(=O)Oc2c[nH]c3ccccc23)cc1` [Example 2, 3-(Nα-tosyl-NG-nitro-L-argininyloxy)indole], in assay [1], the “decode, Negative Sample” value worked out at 422 and the “decode, Positive Sample” value is given as 168.
As to `Cc1ccc(S(=O)(=O)N[C@@H](CCCNC(N)=N[N+](=O)[O-])C(=O)Oc2csc(-c3ccccc3)n2)cc1` [Example 3, 4-(Nα-tosyl-NG-nitro-L-argininyloxy)-2-phenyl-5H-thiazole], in assay [2] (50 mM pH=8 phosphate buffer containing 10,000 U/mL bovine pancreatic trypsin), the “pad colour, test solution” value is recorded as “turned blue”. Also, in assay [2] (50 mM pH=8 phosphate buffer without trypsin), the “pad colour, control solution” value is “remained white”.
On to `Cc1ccc(S(=O)(=O)N=C(N)NCCC[C@H](NS(=O)(=O)c2ccc(C)cc2)C(=O)Oc2c[nH]c(-c3ccccc3)c2)cc1` [Example 4, 3-(Nα-tosyl-NG-tosyl-L-argininyloxy)-5-phenylpyrrole], for which, in assay [1], the “decode, Negative Sample” value came out at 61 and the “decode, Positive Sample” value was 30.
As for `Cc1ccc(S(=O)(=O)N[C@@H](CCCNC(=N)N[N+](=O)[O-])C(=O)Oc2ccc3c(C)cc(=O)oc3c2)cc1` [Example 5, 7-(Nα-tosyl-NG-nitro-L-argininyloxy)-4-methylcoumarin], in assay [3] (50 mM pH=7 phosphate buffer containing 10,000 U/mL bovine pancreatic trypsin), the “pad fluorescence, test solution” value was “fluorescing brightly”. In addition, the “pad fluorescence, control solution” value in assay [3] (50 mM pH=7 phosphate buffer without trypsin) is “remained dull and non-fluorescent”. For the same compound, the “Rate of 385 nm emission increase” value at trypsin (Trypsin concentration 0 U/mL) was 0.36 LU/mm; at trypsin (Trypsin concentration 5 U/mL), 1.21 LU/mm and 2.35 LU/mm; on trypsin (Trypsin concentration 10 U/mL), 2.38 LU/mm and 2.08 LU/mm; on trypsin (Trypsin concentration 20 U/mL), 3.75 LU/mm.
